In the NIST ThermoML archive (doi:10.1021/je800110r):
± gives the expanded uncertainty stated by the source.

Settings: Liquid, Vibrating tube method

CCCCCCCCCC [decane]
Settings	mass density [kg/m3]
333.15 K, 34442 kPa	727.7 ± 2.1
333.15 K, 34445 kPa	727.8 ± 2.1
333.16 K, 815 kPa	699.9 ± 2
333.16 K, 842 kPa	699.9 ± 2
333.16 K, 881 kPa	700 ± 2
333.16 K, 941 kPa	700 ± 2
333.16 K, 2806 kPa	701.9 ± 2
333.16 K, 2881 kPa	702 ± 2
333.16 K, 2921 kPa	701.9 ± 2
333.16 K, 3005 kPa	702 ± 2
333.16 K, 4814 kPa	703.9 ± 2
333.16 K, 4927 kPa	703.9 ± 2
333.16 K, 5007 kPa	704 ± 2
333.16 K, 5592 kPa	704.7 ± 2
333.16 K, 5608 kPa	704.7 ± 2
333.16 K, 5623 kPa	704.7 ± 2
333.16 K, 5704 kPa	704.7 ± 2
333.16 K, 5748 kPa	704.8 ± 2
333.16 K, 5756 kPa	704.7 ± 2
333.16 K, 5775 kPa	704.7 ± 2
333.16 K, 5795 kPa	704.8 ± 2
333.16 K, 5811 kPa	704.9 ± 2
333.16 K, 5830 kPa	704.8 ± 2
333.16 K, 5852 kPa	704.8 ± 2
333.16 K, 5874 kPa	704.9 ± 2
333.16 K, 5896 kPa	704.9 ± 2
333.16 K, 5917 kPa	705 ± 2
333.16 K, 5934 kPa	704.9 ± 2
333.16 K, 5956 kPa	704.9 ± 2
333.16 K, 5973 kPa	705 ± 2
333.16 K, 6001 kPa	704.9 ± 2
333.16 K, 6018 kPa	705 ± 2
333.16 K, 6045 kPa	704.9 ± 2
333.16 K, 6069 kPa	705.1 ± 2
333.16 K, 6092 kPa	705 ± 2
333.16 K, 6116 kPa	705.1 ± 2
333.16 K, 6643 kPa	705.5 ± 2
333.16 K, 6667 kPa	705.5 ± 2
333.16 K, 6688 kPa	705.6 ± 2
333.16 K, 6713 kPa	705.6 ± 2
333.16 K, 6738 kPa	705.6 ± 2
333.16 K, 6763 kPa	705.7 ± 2
333.16 K, 6796 kPa	705.7 ± 2
333.16 K, 6822 kPa	705.8 ± 2
333.16 K, 6844 kPa	705.8 ± 2
333.16 K, 7378 kPa	706.3 ± 2
333.16 K, 7414 kPa	706.2 ± 2
333.16 K, 7450 kPa	706.4 ± 2
333.16 K, 7482 kPa	706.3 ± 2
333.16 K, 7512 kPa	706.3 ± 2
333.16 K, 7550 kPa	706.4 ± 2
333.16 K, 7575 kPa	706.4 ± 2
333.16 K, 7610 kPa	706.5 ± 2
333.16 K, 7628 kPa	706.3 ± 2
333.16 K, 7651 kPa	706.4 ± 2
333.16 K, 7667 kPa	706.6 ± 2
333.16 K, 7693 kPa	706.5 ± 2
333.16 K, 7720 kPa	706.6 ± 2
333.16 K, 7744 kPa	706.6 ± 2
333.16 K, 7771 kPa	706.7 ± 2
333.16 K, 7795 kPa	706.6 ± 2
333.16 K, 7812 kPa	706.5 ± 2
333.16 K, 7830 kPa	706.6 ± 2
333.16 K, 7853 kPa	706.7 ± 2
333.16 K, 7871 kPa	706.8 ± 2
333.16 K, 7897 kPa	706.8 ± 2
333.16 K, 7918 kPa	706.7 ± 2
333.16 K, 7939 kPa	706.8 ± 2
333.16 K, 7960 kPa	706.7 ± 2
333.16 K, 7987 kPa	706.8 ± 2
333.16 K, 8006 kPa	706.9 ± 2
333.16 K, 8033 kPa	706.9 ± 2
333.16 K, 8049 kPa	706.9 ± 2
333.16 K, 8068 kPa	707 ± 2
333.16 K, 8410 kPa	707.1 ± 2
333.16 K, 8437 kPa	707.2 ± 2
333.16 K, 8464 kPa	707.2 ± 2
333.16 K, 8484 kPa	707.2 ± 2
333.16 K, 8592 kPa	707.4 ± 2
333.16 K, 8666 kPa	707.4 ± 2
333.16 K, 8688 kPa	707.6 ± 2
333.16 K, 8718 kPa	707.4 ± 2
333.16 K, 8769 kPa	707.5 ± 2
333.16 K, 8949 kPa	707.7 ± 2
333.16 K, 8971 kPa	707.7 ± 2
333.16 K, 9005 kPa	707.7 ± 2
333.16 K, 9029 kPa	707.7 ± 2
333.16 K, 9051 kPa	707.7 ± 2
333.16 K, 9073 kPa	707.8 ± 2
333.16 K, 9099 kPa	707.9 ± 2
333.16 K, 9121 kPa	707.7 ± 2
333.16 K, 9143 kPa	707.9 ± 2
333.16 K, 9169 kPa	707.8 ± 2
333.16 K, 9191 kPa	707.9 ± 2
333.16 K, 9214 kPa	707.9 ± 2
333.16 K, 9234 kPa	708 ± 2
333.16 K, 9254 kPa	707.9 ± 2
333.16 K, 9280 kPa	707.9 ± 2
333.16 K, 9303 kPa	708.1 ± 2
333.16 K, 9330 kPa	708 ± 2
333.16 K, 9521 kPa	708.1 ± 2
333.16 K, 9549 kPa	708.2 ± 2
333.16 K, 9737 kPa	708.4 ± 2
333.16 K, 9763 kPa	708.4 ± 2
333.16 K, 9789 kPa	708.4 ± 2
333.16 K, 9818 kPa	708.4 ± 2
333.16 K, 12216 kPa	710.6 ± 2
333.16 K, 12245 kPa	710.6 ± 2
333.16 K, 12280 kPa	710.7 ± 2
333.16 K, 12305 kPa	710.7 ± 2
333.16 K, 12351 kPa	710.7 ± 2
333.16 K, 12386 kPa	710.7 ± 2
333.16 K, 12427 kPa	710.8 ± 2
333.16 K, 12458 kPa	710.8 ± 2
333.16 K, 12492 kPa	710.8 ± 2
333.16 K, 12528 kPa	710.8 ± 2
333.16 K, 12561 kPa	710.9 ± 2
333.16 K, 12601 kPa	711 ± 2
333.16 K, 12638 kPa	710.9 ± 2
333.16 K, 12670 kPa	711 ± 2
333.16 K, 12704 kPa	711 ± 2
333.16 K, 12735 kPa	711 ± 2
333.16 K, 12766 kPa	711 ± 2
333.16 K, 12792 kPa	711.1 ± 2
333.16 K, 12824 kPa	711.1 ± 2
333.16 K, 13106 kPa	711.4 ± 2
333.16 K, 13133 kPa	711.4 ± 2
333.16 K, 13377 kPa	711.5 ± 2
333.16 K, 13399 kPa	711.4 ± 2
333.16 K, 13418 kPa	711.7 ± 2
333.16 K, 13441 kPa	711.6 ± 2
333.16 K, 13459 kPa	711.6 ± 2
333.16 K, 13476 kPa	711.7 ± 2
333.16 K, 13493 kPa	711.7 ± 2
333.16 K, 13510 kPa	711.7 ± 2
333.16 K, 13525 kPa	711.7 ± 2
333.16 K, 13537 kPa	711.6 ± 2
